One data set addresses T1, ABCB11 (Homo sapiens, UniProt O95342).
T1 construct: profiled in 60 diverse cancer cell lines (the NCI-60) using real-time RT-PCR; endogenous in cells; host or cells: NCI-60 human cancer cell lines
Kind of data set: Correlation of ABCB11 expression with drug sensitivity across the NCI-60. The data set is classed as cell-based. The conditions noted are these: Pearson correlation of ABCB11 expression with sensitivity of the 60 cell lines; 1429 compounds; inverse, p < 0.0001.

The target of the next data set is T2, ABCC5 (Homo sapiens, UniProt O15440).
T2 construct: profiled in 60 diverse cancer cell lines (the NCI-60) using real-time RT-PCR; endogenous in cells; host or cells: NCI-60 human cancer cell lines
In words: Correlation of ABCC5 expression with drug sensitivity across the NCI-60. The conditions noted are these: Pearson correlation of ABCC5 expression with sensitivity of the 60 cell lines; 1429 compounds; inverse, p < 0.0001. It counts as cell-based.

The target of the next data set is ABCB1 (Homo sapiens, UniProt P08183). Kind of data set: Correlation of ABCB1 expression with drug sensitivity across the NCI-60. The essentials:
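SYBR Green real-time RT-PCR on 150 ng total RNA with 250 nM primers: RT 20 min at 50 °C, then 45 cycles; expression taken as crossing-point cycle number. Correlated with drug sensitivity of 1429 compounds across the cell panel; permutation p-values with step-down and step-up (FDR q-value) multiple-testing correction.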

For another data set, the target named is MDR1 (Homo sapiens, UniProt P08183). The settings on record: cited from earlier work; for Interaction with MDR1: tested in various laboratories.
MDR1, sequence (P08183 whole entry): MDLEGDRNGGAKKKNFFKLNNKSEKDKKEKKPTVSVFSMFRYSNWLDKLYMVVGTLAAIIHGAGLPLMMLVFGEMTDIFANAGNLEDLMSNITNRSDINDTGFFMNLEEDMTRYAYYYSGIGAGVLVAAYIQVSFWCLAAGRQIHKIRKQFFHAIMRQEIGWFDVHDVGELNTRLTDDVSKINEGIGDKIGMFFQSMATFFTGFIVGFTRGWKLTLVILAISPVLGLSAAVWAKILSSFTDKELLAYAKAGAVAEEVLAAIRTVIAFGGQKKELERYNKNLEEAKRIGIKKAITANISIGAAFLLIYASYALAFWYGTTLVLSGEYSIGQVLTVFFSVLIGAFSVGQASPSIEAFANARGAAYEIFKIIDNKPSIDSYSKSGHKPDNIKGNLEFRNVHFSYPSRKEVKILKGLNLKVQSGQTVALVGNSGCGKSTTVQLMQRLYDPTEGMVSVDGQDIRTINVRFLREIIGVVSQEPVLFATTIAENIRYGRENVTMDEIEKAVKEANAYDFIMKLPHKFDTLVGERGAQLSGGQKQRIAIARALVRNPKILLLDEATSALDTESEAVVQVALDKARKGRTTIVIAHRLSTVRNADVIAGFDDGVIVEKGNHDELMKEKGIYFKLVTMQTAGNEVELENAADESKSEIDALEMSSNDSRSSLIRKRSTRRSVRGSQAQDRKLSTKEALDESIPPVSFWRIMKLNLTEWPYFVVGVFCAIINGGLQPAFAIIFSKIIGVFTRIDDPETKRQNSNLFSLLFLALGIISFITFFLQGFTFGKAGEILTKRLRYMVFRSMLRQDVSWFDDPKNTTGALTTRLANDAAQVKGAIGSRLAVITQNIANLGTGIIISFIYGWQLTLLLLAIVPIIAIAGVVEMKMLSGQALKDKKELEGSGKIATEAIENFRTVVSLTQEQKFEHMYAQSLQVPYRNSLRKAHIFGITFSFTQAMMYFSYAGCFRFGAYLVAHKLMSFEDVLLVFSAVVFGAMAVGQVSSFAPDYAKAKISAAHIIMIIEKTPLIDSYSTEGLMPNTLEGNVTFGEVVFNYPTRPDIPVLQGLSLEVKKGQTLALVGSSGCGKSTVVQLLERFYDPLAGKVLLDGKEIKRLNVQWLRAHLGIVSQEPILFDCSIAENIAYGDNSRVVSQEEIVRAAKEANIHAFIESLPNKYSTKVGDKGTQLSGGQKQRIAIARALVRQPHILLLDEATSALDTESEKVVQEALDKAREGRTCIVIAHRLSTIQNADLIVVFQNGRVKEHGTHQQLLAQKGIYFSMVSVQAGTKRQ
The target of the next data set is T3, ABCC1 (Homo sapiens, UniProt P33527).
T3 construct: profiled in 60 diverse cancer cell lines (the NCI-60) using real-time RT-PCR; endogenous in cells; host or cells: NCI-60 human cancer cell lines
Kind of data set: Correlation of ABCC1 expression with drug sensitivity across the NCI-60. The data set is classed as cell-based. The conditions noted are these: Pearson correlation of ABCC1 expression with sensitivity of the 60 cell lines; 1429 compounds; inverse, p < 0.0001.

The target in another data set is T4, ABCA1 (Homo sapiens, UniProt O95477).
T4 construct: profiled in 60 diverse cancer cell lines (the NCI-60) using real-time RT-PCR; endogenous in cells; host or cells: NCI-60 human cancer cell lines
Kind of data set: Correlation of ABCA1 expression with drug sensitivity across the NCI-60. It counts as cell-based. The settings on record: Pearson correlation of ABCA1 expression with sensitivity of the 60 cell lines; 1429 compounds; inverse, p < 0.0001.

The next data set deals with T5, ABCA4 (Homo sapiens, UniProt P78363).
T5 construct: profiled in 60 diverse cancer cell lines (the NCI-60) using real-time RT-PCR; endogenous in cells; host or cells: NCI-60 human cancer cell lines
T5 sequence (P78363 whole entry): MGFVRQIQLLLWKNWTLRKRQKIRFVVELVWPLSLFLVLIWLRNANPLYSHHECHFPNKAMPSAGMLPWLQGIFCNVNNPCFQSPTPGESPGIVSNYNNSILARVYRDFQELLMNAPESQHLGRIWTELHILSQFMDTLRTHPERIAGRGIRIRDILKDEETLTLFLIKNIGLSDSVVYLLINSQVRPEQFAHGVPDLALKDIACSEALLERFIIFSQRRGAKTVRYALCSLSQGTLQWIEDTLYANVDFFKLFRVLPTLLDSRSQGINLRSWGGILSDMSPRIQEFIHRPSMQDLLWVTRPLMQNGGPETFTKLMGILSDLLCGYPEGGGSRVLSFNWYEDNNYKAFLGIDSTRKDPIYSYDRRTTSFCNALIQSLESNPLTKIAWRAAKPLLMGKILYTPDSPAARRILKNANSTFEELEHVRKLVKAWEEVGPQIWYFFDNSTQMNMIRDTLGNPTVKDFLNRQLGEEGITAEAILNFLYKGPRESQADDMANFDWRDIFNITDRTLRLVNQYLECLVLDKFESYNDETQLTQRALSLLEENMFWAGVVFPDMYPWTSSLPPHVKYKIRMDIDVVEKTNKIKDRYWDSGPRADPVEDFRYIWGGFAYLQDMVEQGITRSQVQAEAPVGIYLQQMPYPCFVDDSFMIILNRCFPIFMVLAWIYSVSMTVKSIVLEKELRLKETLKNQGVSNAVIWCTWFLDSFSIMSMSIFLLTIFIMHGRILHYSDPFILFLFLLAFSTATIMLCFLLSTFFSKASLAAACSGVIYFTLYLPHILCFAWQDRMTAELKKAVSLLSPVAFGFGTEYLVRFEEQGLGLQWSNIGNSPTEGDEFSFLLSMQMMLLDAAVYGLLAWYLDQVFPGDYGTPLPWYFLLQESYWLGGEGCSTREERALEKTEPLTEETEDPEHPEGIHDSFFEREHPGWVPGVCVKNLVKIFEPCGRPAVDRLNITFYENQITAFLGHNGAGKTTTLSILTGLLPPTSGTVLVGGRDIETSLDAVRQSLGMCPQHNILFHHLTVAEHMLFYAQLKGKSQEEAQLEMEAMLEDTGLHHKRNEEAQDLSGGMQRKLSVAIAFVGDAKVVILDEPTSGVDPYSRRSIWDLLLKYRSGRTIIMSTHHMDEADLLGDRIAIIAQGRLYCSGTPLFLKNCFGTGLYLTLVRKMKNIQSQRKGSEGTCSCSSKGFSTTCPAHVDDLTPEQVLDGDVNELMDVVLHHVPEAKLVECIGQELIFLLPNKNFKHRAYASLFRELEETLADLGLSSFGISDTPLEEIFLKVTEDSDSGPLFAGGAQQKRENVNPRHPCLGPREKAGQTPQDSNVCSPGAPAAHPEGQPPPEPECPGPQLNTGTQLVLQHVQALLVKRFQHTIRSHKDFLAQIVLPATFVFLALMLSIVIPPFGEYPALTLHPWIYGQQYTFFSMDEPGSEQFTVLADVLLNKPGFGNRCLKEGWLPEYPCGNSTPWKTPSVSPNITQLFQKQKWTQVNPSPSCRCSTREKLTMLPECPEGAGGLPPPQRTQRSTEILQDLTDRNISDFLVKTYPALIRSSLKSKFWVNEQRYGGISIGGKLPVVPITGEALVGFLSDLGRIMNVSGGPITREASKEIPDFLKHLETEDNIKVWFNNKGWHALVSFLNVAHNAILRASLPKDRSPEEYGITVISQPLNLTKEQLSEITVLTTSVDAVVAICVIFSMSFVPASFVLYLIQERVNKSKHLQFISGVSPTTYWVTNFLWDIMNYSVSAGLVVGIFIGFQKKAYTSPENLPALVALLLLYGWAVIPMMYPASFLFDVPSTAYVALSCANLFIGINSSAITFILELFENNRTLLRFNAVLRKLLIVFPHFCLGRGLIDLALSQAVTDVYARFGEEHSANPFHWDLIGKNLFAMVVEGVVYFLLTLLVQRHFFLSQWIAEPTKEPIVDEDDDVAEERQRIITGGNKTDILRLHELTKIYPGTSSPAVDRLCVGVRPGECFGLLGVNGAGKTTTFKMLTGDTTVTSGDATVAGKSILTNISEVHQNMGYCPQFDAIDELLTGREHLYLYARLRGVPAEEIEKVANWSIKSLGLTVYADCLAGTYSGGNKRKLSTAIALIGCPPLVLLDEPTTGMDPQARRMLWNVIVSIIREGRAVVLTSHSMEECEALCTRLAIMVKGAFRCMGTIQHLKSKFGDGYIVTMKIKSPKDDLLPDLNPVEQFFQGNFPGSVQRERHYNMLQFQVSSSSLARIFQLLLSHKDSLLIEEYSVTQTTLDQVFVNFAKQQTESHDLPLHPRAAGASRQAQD
Kind of data set: Correlation of ABCA4 expression with drug sensitivity across the NCI-60. The data set is classed as cell-based. The conditions noted are these: Pearson correlation of ABCA4 expression with sensitivity of the 60 cell lines; 1429 compounds; inverse, p < 0.0001.

The next data set has as its target T6, ABCC3 (Homo sapiens, UniProt O15438).
T6 construct: profiled in 60 diverse cancer cell lines (the NCI-60) using real-time RT-PCR; endogenous in cells; host or cells: NCI-60 human cancer cell lines
In words: Correlation of ABCC3 expression with drug sensitivity across the NCI-60. It counts as cell-based. The settings on record: Pearson correlation of ABCC3 expression with sensitivity of the 60 cell lines; 1429 compounds; inverse, p < 0.0001.

Another data set has as its target T7, ABCA12 (Homo sapiens, UniProt Q86UK0).
T7 construct: profiled in 60 diverse cancer cell lines (the NCI-60) using real-time RT-PCR; endogenous in cells; host or cells: NCI-60 human cancer cell lines
Kind of data set: Correlation of ABCA12 expression with drug sensitivity across the NCI-60. It counts as cell-based. The settings on record: Pearson correlation of ABCA12 expression with sensitivity of the 60 cell lines; 1429 compounds; inverse, p < 0.0001.

A further data set concerns the target T8, ABCB5 (Homo sapiens, UniProt Q2M3G0).
T8 construct: profiled in 60 diverse cancer cell lines (the NCI-60) using real-time RT-PCR; endogenous in cells; host or cells: NCI-60 human cancer cell lines
T8 sequence (Q2M3G0 1-1257): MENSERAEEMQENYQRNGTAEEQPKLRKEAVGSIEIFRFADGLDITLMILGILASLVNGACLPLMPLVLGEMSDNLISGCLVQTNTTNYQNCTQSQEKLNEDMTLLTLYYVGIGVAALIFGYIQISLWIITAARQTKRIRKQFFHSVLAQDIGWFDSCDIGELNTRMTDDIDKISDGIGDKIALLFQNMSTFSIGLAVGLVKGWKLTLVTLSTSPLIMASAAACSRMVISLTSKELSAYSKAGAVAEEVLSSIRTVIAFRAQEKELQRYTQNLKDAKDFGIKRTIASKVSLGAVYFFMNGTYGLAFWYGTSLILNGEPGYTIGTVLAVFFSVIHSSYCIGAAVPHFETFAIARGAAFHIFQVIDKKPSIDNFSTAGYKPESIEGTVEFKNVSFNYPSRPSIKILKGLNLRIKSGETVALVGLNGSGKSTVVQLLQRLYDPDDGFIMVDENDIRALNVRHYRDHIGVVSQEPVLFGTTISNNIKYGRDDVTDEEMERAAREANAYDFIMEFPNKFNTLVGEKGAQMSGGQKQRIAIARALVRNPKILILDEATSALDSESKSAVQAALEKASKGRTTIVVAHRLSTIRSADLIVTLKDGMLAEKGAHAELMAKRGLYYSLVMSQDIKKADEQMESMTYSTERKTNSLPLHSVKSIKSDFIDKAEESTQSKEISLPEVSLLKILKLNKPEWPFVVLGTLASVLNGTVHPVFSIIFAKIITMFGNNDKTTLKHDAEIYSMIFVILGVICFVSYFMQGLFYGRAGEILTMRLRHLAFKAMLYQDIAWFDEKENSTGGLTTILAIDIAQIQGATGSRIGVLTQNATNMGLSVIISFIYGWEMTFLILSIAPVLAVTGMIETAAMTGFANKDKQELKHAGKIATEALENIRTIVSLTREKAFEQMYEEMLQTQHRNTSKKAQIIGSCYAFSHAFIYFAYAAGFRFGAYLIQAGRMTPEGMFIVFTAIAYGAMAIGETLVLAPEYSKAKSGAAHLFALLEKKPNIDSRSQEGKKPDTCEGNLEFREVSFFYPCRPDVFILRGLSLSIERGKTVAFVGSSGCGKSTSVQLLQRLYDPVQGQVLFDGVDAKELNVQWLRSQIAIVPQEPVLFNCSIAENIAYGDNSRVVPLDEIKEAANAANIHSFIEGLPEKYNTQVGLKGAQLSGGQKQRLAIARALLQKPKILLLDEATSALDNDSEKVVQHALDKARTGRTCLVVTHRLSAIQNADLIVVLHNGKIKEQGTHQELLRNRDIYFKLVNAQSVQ
In words: Correlation of ABCB5 expression with drug sensitivity across the NCI-60. It counts as cell-based. The settings on record: Pearson correlation of ABCB5 expression with sensitivity of the 60 cell lines; 1429 compounds; inverse, p < 0.0001.

The structures appear in SMILES notation. Read-outs that look alike come from different tables or passages of the source.

ABCB1, sequence (P08183 whole entry): as the sequence (P08183 whole entry) above
Experimental for ABCA12: (§1) Expression levels are measured by real-time quantitative RT-PCR using the LightCycler RNA Amplification SYBR Green kit and a LightCycler machine (Roche Biochemicals, Indianapolis, Ind.). Specific oligonucleotide probes are designed for each of the ABC transporters using DNAStar Primer Select (DNASTAR Inc.), and they may be synthesized at Lofstrand Laboratories (Gaithersburg, Md.). When possible, the amplicons are designed to encompass exon-intron boundaries to avoid amplification of genomic DNA. Since the Syber Green assay detects accumulation of double stranded DNA, primers are selected (from a battery consisting of about 200 primers) that amplified a single product of the correct size.
(§2) RT-PCR is carried out on 150 ng total RNA, in the presence of 250 nM specific primers. Following reverse transcription (20 min at 50° C.), the PCR reaction consists of 45 cycles of denaturation (15 sec at 95° C.), annealing (30 sec at 58° C.), and elongation (30 sec at 72° C.). No-template (water) reaction mixtures are prepared as negative controls.
(§3) During PCR amplification, fluorescence emission is measured and recorded in real time by the LightCycler. Crossing point values are calculated, using the LightCycler software package, by the Fit Points analysis method, with baseline fluorescence set at 1. The SyberGreen assay measures accumulation of double-stranded products, and the appearance of primer dimers limits quantitation at high cycle numbers. The specificity of amplified products is verified by melting-curve analysis and agarose gel electrophoresis (not shown). The raw results are expressed as number of cycles to reach the crossing point. If the desired product is not detected, the corresponding value is adjusted to crossing points indicating no expression. To assess the contribution of experimental artifacts, selected cell lines are assessed in replicate.
(§4) The two are combined to form a joint dataset that includes 1429 compounds.
(§5) To control the overall false type 1 error rate, both a step-down procedure (Westfall and Young, 1993, Resampling-Based Multiple Testing: Examples and Methods for p-value Adjustment (New York: Wiley)) and a step-up procedure (Reiner et al., 2003, Bioinformatics 19:368-375) were employed to adjust for multiple testing of all 47 genes simultaneously. […] In this analysis, the False Discovery Rate (q-value) at which each compound would be declared was calculated using the step-up procedure for positively correlated test statistics (again true because all correlations being compared are computed against the same ABC gene): in this procedure the first q-value for the largest correlation is the Bonferroni-corrected p-value for that gene; then further q-values are calculated as qj=max(pj*1429/j, qj-1). […]
Experimental for ABCA4: as §1, §2, §3, §4, §5
Experimental for ABCB11: (§6) Expression levels are measured by real-time quantitative RT-PCR using the LightCycler RNA Amplification SYBR Green kit and a LightCycler machine (Roche Biochemicals, Indianapolis, Ind.). […] When possible, the amplicons are designed to encompass exon-intron boundaries to avoid amplification of genomic DNA. Since the Syber Green assay detects accumulation of double stranded DNA, primers are selected (from a battery consisting of about 200 primers) that amplified a single product of the correct size.
as §2, §3, §4
(§7) In the Benjamini-Hochberg procedure the p-values are computed in the standard way by permutation, assuming that all distributions are exchangeable: the number of values in the permuted data with correlations over a threshold, divided by the number of compounds and by the number of permutations. In this analysis, the False Discovery Rate (q-value) at which each compound would be declared was calculated using the step-up procedure for positively correlated test statistics (again true because all correlations being compared are computed against the same ABC gene): in this procedure the first q-value for the largest correlation is the Bonferroni-corrected p-value for that gene; then further q-values are calculated as qj=max(pj*1429/j, qj-1). This procedure limits the expected proportion of false positives in the list 1, . . . , j to at most qj.
Experimental for ABCB5: as §6, §2, §3, §4, §7
Experimental for ABCC1: as §6, §2, §3, §4, §7
Experimental for ABCC3: as §6, §2, §3, §4
To determine quantitatively how well the 47 genes cluster the cell lines by their tissues of origin, a statistical method is employed wherein the kappa statistic is used to indicate how well the observed clusters correspond to the nine tissue-of-origin classifications. […] To control the overall false type 1 error rate, both a step-down procedure (Westfall and Young, 1993, Resampling-Based Multiple Testing: Examples and Methods for p-value Adjustment (New York: Wiley)) and a step-up procedure (Reiner et al., 2003, Bioinformatics 19:368-375) were employed to adjust for multiple testing of all 47 genes simultaneously. In the Benjamini-Hochberg procedure the p-values are computed in the standard way by permutation, assuming that all distributions are exchangeable: the number of values in the permuted data with correlations over a threshold, divided by the number of compounds and by the number of permutations. In this analysis, the False Discovery Rate (q-value) at which each compound would be declared was calculated using the step-up procedure for positively correlated test statistics (again true because all correlations being compared are computed against the same ABC gene): in this procedure the first q-value for the largest correlation is the Bonferroni-corrected p-value for that gene; then further q-values are calculated as qj=max(pj*1429/j, qj-1). This procedure limits the expected proportion of false positives in the list 1, . . . , j to at most qj.
Experimental for ABCC5: as §6, §2, §3, §4, §7

The molecule `CC1=CC(=O)C(C)=CC1=O` [NSC 15309] displayed a Correlation on ABCB11 of −0.4683.

Consider `COc1cc2c(cc1Oc1c(Oc3c(O)c(OC)cc4c3C(CC(C)C)N(C)CC4)c(OC)cc3c1C(CC(C)C)N(C)CC3)C(CC(C)C)N(C)CC2` (stereo not shown) [NSC 21075], for which the Correlation at ABCC5 was −0.3650.

In the case of `CCS(=O)(=O)O.CN(C)C(=O)c1cccc(COc2ccc(N3C(N)=NC(N)=NC3(C)C)cc2Cl)c1` [NSC 139105, Baker's soluble antifol, reference compound], on ABCB1, the “Relationship between drug sensitivity and ABCB1 expression (in words)” value is on record as “inversely correlated”. Besides, on MDR1 (verapamil, inhibitor of MDR1 transport (Gupta et al., 1988)), the “Reversal of resistance by verapamil” value is “reversed by verapamil”. `C=CCn1c2ccccc2c2c(C)c3cnccc3c(C)c21` [NSC 150834] had a Correlation at ABCB11 of −0.5267.

At ABCC5, `COc1ccc2c(c1)c1c(C)c3c[n+](C)ccc3c(C)c1n2C` [NSC 155694] returned a Correlation of −0.4494. `COc1cc2cc3c4cc(OC)c(OC)cc4cc[n+]3c(C)c2cc1OC` [NSC 156625, Coralyne] returned a Correlation on ABCB1 of −0.4657. Further, the “Interaction with MDR1” value at MDR1 is “interact with MDR1”.

Consider `CCOC(=O)CNC(=O)NC12CC3CC(CC(C3)C1)C2` [NSC 208914], for which, at ABCC1, the Correlation is recorded as −0.4950. Regarding `CC1(C)C[C@]23[C@@H]4COC(=O)[C@H]2CC[C@H]1[C@@H]3CC4=O` [NSC 284437], the Correlation at ABCB11 is reported as −0.5273. `O=C1C(CO)=C[C@H](O)[C@H]2O[C@@H]12` [NSC 326233] yielded a Correlation on ABCB11 of −0.4430. For the molecule `CC(=O)O[C@@H]1[C@@H](O)[C@H](O[C@H]2[C@H](OC(=O)[C@H]3CC[C@@H]4[C@H](C3)O[C@@]3(C[C@H](OC(=O)/C=C/c5ccccc5)[C@H](C)CO3)[C@]43CO3)O[C@H](C)[C@@H](O)[C@@H]2OC(C)=O)O[C@H](C)[C@H]1O` [NSC 328426, phyllanthoside], the Correlation on ABCB1 (Pearson correlation of ABCB1 expression with sensitivity of the 60 cell lines, 1429 compounds, inverse, p < 0.0001) is given as −0.7784; at ABCA1, −0.2806. Further, the “Interaction with MDR1” value on MDR1 was “interact with MDR1”. The molecule `Cc1c2ccnc(C(N)=O)c2c(C)c2c1[nH]c1ccccc12.Cl` [NSC 335142] had a Correlation at ABCB11 of −0.4214. Turning to `CS(=O)(=O)[O-].Cc1c2cc[n+](C)cc2c(C)c2c1[nH]c1ccccc12` [NSC 352299], on ABCC5, the Correlation was −0.4318.

In turn, `Cc1c2cc[n+](Cc3ccc(I)cc3)cc2c(C)c2c1[nH]c1ccccc12` [NSC 604574] registered a Correlation at ABCC5 of −0.4123. In the case of `C=C(c1ccccc1)[C@@]1(O)CC[C@@H]1N(CC#N)Cc1ccccc1` [NSC 617644], on ABCC1, the Correlation is given as −0.5087. As to `CC1=C(C(=O)Nc2ccccc2)C(c2ccc(N(C)C)cc2)C(C(=O)Nc2ccccc2)=C(C)N1` [NSC 636092], on ABCA4, the Correlation was −0.3977. At ABCA1, `CC[n+]1c(/C=C/c2ccc(N(CCCl)CCCl)cc2)ccc2cc(NC(=O)/C=C/c3ccccc3)ccc21.[I-]` [NSC 640085] returned a Correlation of −0.3580. For `COC(=O)c1ccccc1NC(=O)C(=O)CC(=O)c1ccccc1NC1=CC(=O)C(=O)c2ccccc21` [NSC 641240], the Correlation at ABCC3 is reported as −0.5829; on ABCA12, −0.5165. As for `Cc1oc2c(c1C(=O)c1ccccc1)C(=O)c1ccccc1C2=O` [NSC 641594], the Correlation on ABCC3 is −0.4994; on ABCC1, −0.4324. Take `O=C1C=C(Nc2ccccc2C(=O)CC(=O)C(=O)Nc2cccc(C(F)(F)F)c2)c2ccccc2C1=O` [NSC 644751]: the Correlation on ABCC3 is recorded as −0.5748; on ABCA12, −0.5643.

For `COC1=C(OC)C(=O)c2cc(C)c(=O)c(C)cc2C1=O` [NSC 649666], the Correlation on ABCA12 is −0.3757. The molecule `COc1cc(CNc2ccc(SC)cc2)cc(OC)c1OC` [NSC 650771] had a Correlation at ABCA4 of −0.3792.

For the molecule `COc1cc2c(cc1O)CC[C@@H]1[C@@H]2CC[C@]2(C)[C@@H](O)CC[C@@H]12` [NSC 659853], the Correlation on ABCA12 is reported as −0.5016.

Molecule `Cc1cc(C)c2c(=O)cc(-c3ccccc3)[nH]c2c1` [NSC 665925] registered a Correlation on ABCA4 of −0.4545. With `CC1C(c2ccc3c(c2)OCO3)c2cc3c(cc2OC1N1CCOCC1)OCO3` (stereo not shown) [NSC 666222], the Correlation on ABCC1 is recorded as −0.3675. `COC(=O)CCC(=O)NC1=C(Nc2ccccc2)C(=O)c2ccccc2C1=O` [NSC 670762]: the Correlation at ABCC1 is −0.4326.

For the molecule `OCCO[P+]1(OCCO)n2c3ccc2C(c2ccccc2)=C2C=CC(=N2)C(c2ccccc2)=c2ccc(n21)=C(c1ccccc1)C1=NC(=C3c2ccccc2)C=C1` [NSC 682066], the results for the Correlation on ABCB1 and on ABCA1 were −0.7985 and −0.3783, respectively.

Regarding `C=C1[C@H](OCC(C)C)[C@@H](O)[C@@H](OC(=O)c2cccnc2)C(C)(C)/C=C/[C@H](C)[C@H](OC(C)=O)[C@@]2(O)C[C@@](C)(OC(C)=O)[C@H](OC(=O)c3ccccc3)[C@@H]2[C@H]1OC(C)=O` [NSC 688235], the Correlation at ABCA4 is −0.3557. For the molecule `CN(C)CC1CCC/C(=C\c2ccc(OC(=O)/C=C/c3ccc(Cl)c(Cl)c3)cc2)C1=O.Cl` (stereo not shown) [NSC 693443], the “Pearson's Correlation Coeff” value on ABCB1 amounted to 0.1842. Besides, the Correlation on ABCB5 was −0.3300. For the molecule `C=C1C(=O)O[C@H]2[C@@H](O)[C@H](C)CCC/C(C)=C/CC[C@@]3(C)O[C@@H]3C[C@@H]12` [NSC 694509], the “Pearson's Correlation Coeff” value at ABCB1 was found to be 0.2823. At ABCB5, this molecule registered a Correlation of −0.2924. Consider `CN(C)c1ccc(/C=c2/c3ccccc3n3c2cc(-c2ccc(Cl)cc2)[n+]3C)cc1.O=S(=O)([O-])C(F)(F)F` [NSC 699479], for which, at ABCA1, the Correlation is on record as −0.4141.

Source of the values: patent publication US20080214606A1, “Methods for the Identification and Use of Compounds Suitable for the Treatment of Drug Resistant Cancer Cells” (The Government of the United States of America as …, priority 2004, published 2008).
